Values after ≈ are worked out from the molar mass of the structure shown.
Columns and labels:
Type in all cases: functional
Bacillus subtilis = assay: Antibacterial activity against Bacillus subtilis ATCC 23857 by NCCLS method
Staphylococcus aureus [1] = assay: Antibacterial activity against Staphylococcus aureus ATCC 29213 by NCCLS method
Bacteroides fragilis = assay: Antibacterial activity against Bacteroides fragilis ATCC 23745 by NCCLS method
[2] = test system: Staphylococcus epidermidis; assay: Antibacterial activity against methicillin-resistant Staphylococcus epidermidis ATCC 51625 by NCCLS method
Bacillus cereus = assay: Antibacterial activity against Bacillus cereus ATCC 11778 by NCCLS method
Enterococcus faecalis = assay: Antibacterial activity against vancomycin-resistant Enterococcus faecalis ATCC 51575 by NCCLS method
Enterococcus faecium = assay: Antibacterial activity against vancomycin-resistant Enterococcus faecium ATCC 700221 by NCCLS method
Staphylococcus aureus [3] = assay: Antibacterial activity against methicillin-resistant Staphylococcus aureus ATCC 33591 by NCCLS method
[4] = test system: Staphylococcus epidermidis; assay: Antibacterial activity against Staphylococcus epidermidis ATCC 12228 by NCCLS method
Clostridium perfringens = assay: Antibacterial activity against Clostridium perfringens ATCC 10388 by NCCLS method
Streptococcus pneumoniae = assay: Antibacterial activity against Streptococcus pneumoniae ATCC 6301 by NCCLS method
Staphylococcus aureus [5] = assay: Antibacterial activity against multidrug-resistant Staphylococcus aureus BAA-39 by NCCLS method

Structure (SMILES): CC1(C)S[C@@H]2[C@H](NC(=O)Cc3ccccc3)C(=O)N2[C@H]1C(=O)O [PENICILLIN G]
- MIC (Bacillus subtilis): < 0.06 µg/mL
- MIC (Staphylococcus aureus [1]): 1 µg/mL (≈ 2.99 µM)
- MIC (Bacteroides fragilis): 4 µg/mL (≈ 12 µM)
- MIC [2]: 32 µg/mL (≈ 95.7 µM)
- MIC (Bacillus cereus): > 4 µg/mL
- MIC (Enterococcus faecalis): 4 µg/mL (≈ 12 µM)
- MIC (Enterococcus faecium): > 32 µg/mL
- MIC (Staphylococcus aureus [3]): > 32 µg/mL
- MIC [4]: 32 µg/mL (≈ 95.7 µM)
- MIC (Clostridium perfringens): ≤ 0.06 µg/mL
- MIC (Streptococcus pneumoniae): < 0.06 µg/mL
- MIC (Staphylococcus aureus [5]): > 32 µg/mL

Structure (SMILES): N=C(NC1CCCC1)c1ccc2[nH]c(-c3ccc(CCc4ccc(-c5nc6cc(C(=N)NC7CCCC7)ccc6[nH]5)cc4)cc3)nc2c1
- MIC (Bacillus subtilis): 1 µg/mL (≈ 1.58 µM)
- MIC (Staphylococcus aureus [1]): 1 µg/mL (≈ 1.58 µM)
- MIC (Bacteroides fragilis): > 32 µg/mL
- MIC [2]: 0.12 µg/mL (≈ 0.189 µM)
- MIC (Bacillus cereus): 0.5 µg/mL (≈ 0.788 µM)
- MIC (Enterococcus faecalis): 2 µg/mL (≈ 3.15 µM)
- MIC (Enterococcus faecium): 0.25 µg/mL (≈ 0.394 µM)
- MIC (Staphylococcus aureus [3]): 0.5 µg/mL (≈ 0.788 µM)
- MIC [4]: < 0.06 µg/mL
- MIC (Clostridium perfringens): 4 µg/mL (≈ 6.3 µM)
- MIC (Streptococcus pneumoniae): 0.25 µg/mL (≈ 0.394 µM)
- MIC (Staphylococcus aureus [5]): 1 µg/mL (≈ 1.58 µM)

Structure (SMILES): N=C(c1ccc2[nH]c(-c3ccc(CCc4ccc(-c5nc6cc(C(=N)N7CCCC7)ccc6[nH]5)cc4)cc3)nc2c1)N1CCCC1
- MIC (Bacillus subtilis): 2 µg/mL (≈ 3.3 µM)
- MIC (Staphylococcus aureus [1]): 0.5 µg/mL (≈ 0.824 µM)
- MIC (Bacteroides fragilis): 2 µg/mL (≈ 3.3 µM)
- MIC [2]: 0.25 µg/mL (≈ 0.412 µM)
- MIC (Bacillus cereus): 1 µg/mL (≈ 1.65 µM)
- MIC (Enterococcus faecalis): 16 µg/mL (≈ 26.4 µM)
- MIC (Enterococcus faecium): 2 µg/mL (≈ 3.3 µM)
- MIC (Staphylococcus aureus [3]): 0.25 µg/mL (≈ 0.412 µM)
- MIC [4]: 0.25 µg/mL (≈ 0.412 µM)
- MIC (Clostridium perfringens): 2 µg/mL (≈ 3.3 µM)
- MIC (Streptococcus pneumoniae): > 32 µg/mL
- MIC (Staphylococcus aureus [5]): 0.5 µg/mL (≈ 0.824 µM)

Structure (SMILES): CC(C)NC(=N)c1ccc2[nH]c(-c3ccc(CCc4ccc(-c5nc6cc(C(=N)NC(C)C)ccc6[nH]5)cn4)cc3)nc2c1
- MIC (Bacillus subtilis): 32 µg/mL (≈ 54.8 µM)
- MIC (Staphylococcus aureus [1]): 16 µg/mL (≈ 27.4 µM)
- MIC (Bacteroides fragilis): 16 µg/mL (≈ 27.4 µM)
- MIC [2]: 4 µg/mL (≈ 6.85 µM)
- MIC (Bacillus cereus): 8 µg/mL (≈ 13.7 µM)
- MIC (Enterococcus faecalis): 4 µg/mL (≈ 6.85 µM)
- MIC (Enterococcus faecium): 16 µg/mL (≈ 27.4 µM)
- MIC (Staphylococcus aureus [3]): 8 µg/mL (≈ 13.7 µM)
- MIC [4]: 2 µg/mL (≈ 3.43 µM)
- MIC (Clostridium perfringens): 0.5 µg/mL (≈ 0.857 µM)
- MIC (Streptococcus pneumoniae): 8 µg/mL (≈ 13.7 µM)
- MIC (Staphylococcus aureus [5]): 8 µg/mL (≈ 13.7 µM)

Structure (SMILES): c1cc(-c2nc3cc(C4=NCCN4)ccc3[nH]2)ccc1CCc1ccc(-c2nc3cc(C4=NCCN4)ccc3[nH]2)cc1
- MIC (Bacillus subtilis): > 64 µg/mL
- MIC (Staphylococcus aureus [1]): > 64 µg/mL
- MIC (Bacteroides fragilis): > 64 µg/mL
- MIC [2]: > 64 µg/mL
- MIC (Bacillus cereus): > 64 µg/mL
- MIC (Enterococcus faecalis): > 64 µg/mL
- MIC (Enterococcus faecium): > 64 µg/mL
- MIC (Staphylococcus aureus [3]): > 64 µg/mL
- MIC [4]: > 64 µg/mL
- MIC (Clostridium perfringens): > 64 µg/mL
- MIC (Streptococcus pneumoniae): > 64 µg/mL
- MIC (Staphylococcus aureus [5]): > 64 µg/mL

Structure (SMILES): CC(C)NC(=N)c1ccc2[nH]c(-c3ccc(CCc4ccc(-c5nc6ccccc6[nH]5)cc4)cc3)nc2c1
- MIC (Bacillus subtilis): > 32 µg/mL
- MIC (Staphylococcus aureus [1]): > 32 µg/mL
- MIC (Bacteroides fragilis): > 32 µg/mL
- MIC [2]: 8 µg/mL (≈ 16 µM)
- MIC (Bacillus cereus): 32 µg/mL (≈ 64.2 µM)
- MIC (Enterococcus faecalis): > 32 µg/mL
- MIC (Enterococcus faecium): 16 µg/mL (≈ 32.1 µM)
- MIC (Staphylococcus aureus [3]): > 32 µg/mL
- MIC [4]: 4 µg/mL (≈ 8.02 µM)
- MIC (Clostridium perfringens): 1 µg/mL (≈ 2.01 µM)
- MIC (Streptococcus pneumoniae): > 32 µg/mL
- MIC (Staphylococcus aureus [5]): > 32 µg/mL

Structure (SMILES): CC(C)NC(=N)c1ccc2[nH]c(-c3ccc(CCc4cc(-c5nc6cc(C(=N)NC(C)C)ccc6[nH]5)cs4)cc3)nc2c1
- MIC (Bacillus subtilis): 0.5 µg/mL (≈ 0.849 µM)
- MIC (Staphylococcus aureus [1]): 1 µg/mL (≈ 1.7 µM)
- MIC (Bacteroides fragilis): 1 µg/mL (≈ 1.7 µM)
- MIC [2]: 0.25 µg/mL (≈ 0.425 µM)
- MIC (Bacillus cereus): 0.25 µg/mL (≈ 0.425 µM)
- MIC (Enterococcus faecalis): 1 µg/mL (≈ 1.7 µM)
- MIC (Enterococcus faecium): 0.25 µg/mL (≈ 0.425 µM)
- MIC (Staphylococcus aureus [3]): 0.25 µg/mL (≈ 0.425 µM)
- MIC (Clostridium perfringens): 0.25 µg/mL (≈ 0.425 µM)
- MIC (Streptococcus pneumoniae): 0.12 µg/mL (≈ 0.204 µM)
- MIC (Staphylococcus aureus [5]): 1 µg/mL (≈ 1.7 µM)

Structure (SMILES): O=C(O)c1cn(C2CC2)c2cc(N3CCNCC3)c(F)cc2c1=O [CIPROFLOXACIN]
- MIC (Bacillus subtilis): ≤ 0.12 µg/mL
- MIC (Staphylococcus aureus [1]): 0.5 µg/mL (≈ 1.51 µM)
- MIC (Bacteroides fragilis): 0.5 µg/mL (≈ 1.51 µM)
- MIC [2]: ≤ 0.12 µg/mL
- MIC (Bacillus cereus): ≤ 0.12 µg/mL
- MIC (Enterococcus faecalis): 0.5 µg/mL (≈ 1.51 µM)
- MIC (Enterococcus faecium): > 64 µg/mL
- MIC (Staphylococcus aureus [3]): ≤ 0.12 µg/mL
- MIC [4]: ≤ 0.12 µg/mL
- MIC (Staphylococcus aureus [5]): 8 µg/mL (≈ 24.1 µM)

Structure (SMILES): CC(C)NC(=N)c1ccc2[nH]c(-c3ccc(CCc4ccc(-c5nc6cc(C(=N)NC(C)C)ccc6[nH]5)nc4)cc3)nc2c1
- MIC (Bacillus subtilis): 1 µg/mL (≈ 1.71 µM)
- MIC (Staphylococcus aureus [1]): 4 µg/mL (≈ 6.85 µM)
- MIC (Bacteroides fragilis): 32 µg/mL (≈ 54.8 µM)
- MIC [2]: 1 µg/mL (≈ 1.71 µM)
- MIC (Bacillus cereus): 0.5 µg/mL (≈ 0.857 µM)
- MIC (Enterococcus faecalis): 2 µg/mL (≈ 3.43 µM)
- MIC (Enterococcus faecium): 1 µg/mL (≈ 1.71 µM)
- MIC (Staphylococcus aureus [3]): 4 µg/mL (≈ 6.85 µM)
- MIC [4]: 0.25 µg/mL (≈ 0.428 µM)
- MIC (Clostridium perfringens): 8 µg/mL (≈ 13.7 µM)
- MIC (Streptococcus pneumoniae): 0.12 µg/mL (≈ 0.206 µM)
- MIC (Staphylococcus aureus [5]): 8 µg/mL (≈ 13.7 µM)

— ChEMBL document CHEMBL1153280, “Synthesis and in vitro activity of dicationic bis-benzimidazoles as a new class of anti-MRSA and anti-VRE agents” (2009)
